Measurements: patent US20080299041A1, “HETEROCYCLIC INDENE DERIVATIVES AND THEIR RADIOISOTOPE LABELED COMPOUNDS FOR IMAGING BETA-AMYLOID DEPOSITION” (SEOUL NATIONAL UNIVERSITY INDUSTRY FOUNDATION, priority 2007, published 2008)

How the values were obtained:
Aβ1-40 aggregates = Aβ1-40 aggregates (Homo sapiens, UniProt P05067); test: In vitro competitive binding assay with 3′-[^125I]I-BTA-1 as radioligand, Aβ1-40 aggregates; conditions: Aβ aggregates 20 nM, 3 h at room temperature, pH 7.2
Procedure: (§1) Affinity to β-amyloid can be measured by incubation with β-amyloid precipitate and count the bound form after separation by centrifugation. Kd or Ki values are obtained either by saturation binding assay or competition assay.
(§2) Aβ1-40 or Aβ1-42 peptides were incubated in phosphate buffer (pH=7.2) overnight to prepare precipitates as reported in literatures, and then aliquoted and stored at −70[…]. (Klunk, W. E.; Wang, Y.; Huang, G-F.; Debnath, M. L.; Holt D. P.; Mathis, C. A. Uncharged thioflavin-T derivatives bind to amyloid-beta protein with high affinity and readily enter the brain. Life Sci. 2001, 69(13), […]; Zhuang, Z.-P.; Kung, M.-P.; Wilson, A.; Lee, C.-W.; Plossl, K.; Hou, C.; Holtzman, D. M.; Kung, H. F.; Structure-activity relationship of imidazo[1,2-a]pyridines as ligands for detecting β-amyloid plaques in the brain. J. Med. Chem. 2003; 46(2), 237-243)
(§3) The binding affinities of benzothiophene derivatives to Aβ aggregates were evaluated by competitive binding assays using 3′-[^125I]I-BTA-1 as a radioligand. […] Nonspecific binding was determined by incubation in the presence of 10 μM thioflavin-T. The reaction mixtures were filtered through Whatman GF/B glass filters and washed twice with 3 mL of 10% ethanol aliquots. Filters were counted using a Nat well counter. Ki values of the benzothiophene derivatives were then calculated from the results and represented on Table 1.

Aβ1-42 aggregates = Aβ1-42 aggregates (Homo sapiens, UniProt P05067); test: In vitro competitive binding assay with 3′-[^125I]I-BTA-1 as radioligand, Aβ1-42 aggregates; conditions: Aβ aggregates 20 nM, 3 h at room temperature, pH 7.2
Sequence of Aβ1-42 aggregates (P05067 672-713 limits assumed): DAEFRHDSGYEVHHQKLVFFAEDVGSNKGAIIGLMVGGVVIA
Procedure: as §1, §2, §3

[1] = Biodistribution experiment in mice after tail vein injection of ^18F labeled compound; type: in vivo, Male ICR mice
Procedure: The penetration of BBB can be estimated by animal experiment. The radiolabeled compounds are intravenously injected to mice, and then the brains are obtained at 2 min, 30 min, and 60 min. The radioactivities of the brain are expressed as the percentage of injected dose per brain weight (gram).
FIG. 2. Biodistribution graph observed in each organ after injection of 2-(4′-[^18F]fluoromethyl)phenyl-1,3-benzothiazole through the mice tail veins. The mice were sacrificed at 2 min, 30 min and 60 min after injection, respectively, and then organs were taken out. The organs were weighed and their radioactivities were measured. The radioactivity distribution in each organ was calculated as the percentage of injected dose per organ weight (gram).
Male ICR mice (n=4/group, 29.9±1.6 g) were injected with 148 kBq/0.1 mL of 2-(4′-[^18F]fluoromethyl)phenyl-1,3-benzothiazole through the tail vein. These injected mice were sacrificed by decapitation 2, 30 and 60 min post-injection. Blood, muscle, lung, liver, spleen, stomach, intestine, brain, and bone were rapidly separated, weighed and counted using a NaI well counter. Results are expressed as percentages of the injected dose per gram of tissue (% ID/g), and represented in FIG. 2. Brain uptake at […] was 5.62±0.28% ID/g and ratio to 30 min was 3.75±0.97, which represent rapid uptake and wash out to and from normal brain.
A comparative mice biodistribution study using 2-(4′-O-(2′-[^18F]Fluoroethyl)hydroxyphenyl)benzothiophene and 2-(4′-O-(3′-[^18F]Fluoropropyl)hydroxyphenyl) benzothiophene was performed according to the same procedure with above Experiment 2.

Sequence of Aβ1-40 aggregates (P05067 672-711 limits assumed): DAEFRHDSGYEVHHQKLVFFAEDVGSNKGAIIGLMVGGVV

Molecule	Ki (Aβ1-40 aggregates) [nM]	Ki (Aβ1-42 aggregates) [nM]	Blood uptake ([1]; 2 min post-injection) [% ID/g]	Bone uptake ([1]; 2 min post-injection) [% ID/g]	Brain uptake ([1]; 2 min post-injection) [% ID/g]	Fat uptake ([1]; 2 min post-injection) [% ID/g]	Heart uptake ([1]; 2 min post-injection) [% ID/g]	Intestine uptake ([1]; 2 min post-injection) [% ID/g]	Kidney uptake ([1]; 2 min post-injection) [% ID/g]	Liver uptake ([1]; 2 min post-injection) [% ID/g]	Lung uptake ([1]; 2 min post-injection) [% ID/g]	Muscle uptake ([1]; 2 min post-injection) [% ID/g]	Spleen uptake ([1]; 2 min post-injection) [% ID/g]	Stomach uptake ([1]; 2 min post-injection) [% ID/g]	Blood uptake ([1]; 30 min post-injection) [% ID/g]	Bone uptake ([1]; 30 min post-injection) [% ID/g]	Brain uptake ([1]; 30 min post-injection) [% ID/g]	Fat uptake ([1]; 30 min post-injection) [% ID/g]	Heart uptake ([1]; 30 min post-injection) [% ID/g]	Intestine uptake ([1]; 30 min post-injection) [% ID/g]	other results
2-(4′-fluoromethyl)phenyl-1,3-benzothiazole	26.9 ± 5.04	28.1 ± 4.44																			
[18F]CCOc1ccc(-c2cc3ccccc3s2)cc1 [2-(4′-O-(2′-[^18F]Fluoroethyl)hydroxyphenyl)benzothiophene]			3.5 ± 0.2	2.5 ± 0.2	5.2 ± 0.4	0.9 ± 0.3	8.8 ± 1.0	2.7 ± 0.2	11.8 ± 0.9	9.3 ± 1.5	9.3 ± 1.1	2.9 ± 0.3	4.4 ± 0.8	2.1 ± 0.7	3.8 ± 0.4	3.3 ± 0.2	5.2 ± 0.5	2.1 ± 1.0	3.2 ± 0.2	7.2 ± 0.6	Kidney uptake ([1]; 30 min post-injection): 4.1 ± 0.7 % ID/g; Liver uptake ([1]; 30 min post-injection): 3.9 ± 0.7 % ID/g; Lung uptake ([1]; 30 min post-injection): 3.4 ± 0.6 % ID/g; Muscle uptake ([1]; 30 min post-injection): 2.7 ± 0.3 % ID/g; Spleen uptake ([1]; 30 min post-injection): 2.7 ± 0.5 % ID/g; Stomach uptake ([1]; 30 min post-injection): 2.5 ± 0.3 % ID/g
[18F]CCCOc1ccc(-c2cc3ccccc3s2)cc1 [2-(4′-O-(3′-[^18F]Fluoropropyl)hydroxyphenyl)benzothiophene]			3.3 ± 0.5	2.2 ± 0.2	3.3 ± 0.2	0.7 ± 0.1	11.9 ± 0.6	2.4 ± 0.2	13.5 ± 1.2	17.0 ± 0.6	10.2 ± 1.4	3.0 ± 0.2	4.1 ± 1.2	1.8 ± 0.5	1.4 ± 0.1	10.7 ± 0.6	4.0 ± 0.4	1.9 ± 0.4	1.8 ± 0.3	5.5 ± 0.4	Kidney uptake ([1]; 30 min post-injection): 4.4 ± 0.4 % ID/g; Liver uptake ([1]; 30 min post-injection): 6.1 ± 0.6 % ID/g; Lung uptake ([1]; 30 min post-injection): 2.2 ± 0.6 % ID/g; Muscle uptake ([1]; 30 min post-injection): 1.6 ± 0.1 % ID/g; Spleen uptake ([1]; 30 min post-injection): 1.5 ± 0.2 % ID/g; Stomach uptake ([1]; 30 min post-injection): 1.0 ± 0.4 % ID/g
[18F]Cc1ccc(-c2nc3ccccc3s2)cc1 [2-(4′-[^18F]fluoromethyl)phenyl-1,3-benzothiazole]																					Bone uptake (in words; in vivo defluorination) ([1]; tail vein): High bone uptake; Brain uptake ([1]; tail vein, "at min" post-injection (time figure missing)): 5.62±0.28 % ID/g; Brain uptake ratio to 30 min ([1]; tail vein, early brain uptake / 30 min): 3.75±0.97
FCc1ccc(-c2nc3ccccc3o2)cc1 [Benzoxaxole, 2-(4′-fluoromethyl)phenyl-1,3-benzoxazole]	75.7 ± 43.2	59.9 ± 5.03																			
